In the NIST ThermoML archive (doi:10.1021/je050376y):

Test: xn = mol fraction of the nth substance listed
Conditions: 101 kPa, Liquid

Cc1ccc(O)cc1 [4-methylphenol] + OCCO
Conditions | mass density [kg/m3] | viscosity [mPa·s]
308.15 K, x1 = 0.1001 | 1088.89 | 12.15
308.15 K, x1 = 0.1999 | 1077.45 | 12.43
308.15 K, x1 = 0.2997 | 1067.32 | 12.43
308.15 K, x1 = 0.4001 | 1058.44 | 12.09
308.15 K, x1 = 0.4998 | 1050.66 | 11.54
308.15 K, x1 = 0.6002 | 1043.69 | 10.83
308.15 K, x1 = 0.7 | 1037.34 | 10.01
308.15 K, x1 = 0.8 | 1031.62 | 9.31
308.15 K, x1 = 0.8994 | 1026.55 | 8.726
308.15 K, x1 = 1 | 1021.98 | 8.444
313.15 K, x1 = 0.1001 | 1085.2 | 9.956
313.15 K, x1 = 0.1999 | 1073.68 | 10.18
313.15 K, x1 = 0.2997 | 1063.52 | 10.13
313.15 K, x1 = 0.4001 | 1054.58 | 9.821
313.15 K, x1 = 0.4998 | 1046.78 | 9.353
313.15 K, x1 = 0.6002 | 1039.82 | 8.735
313.15 K, x1 = 0.7 | 1033.45 | 8.103
313.15 K, x1 = 0.8 | 1027.72 | 7.526
313.15 K, x1 = 0.8994 | 1022.63 | 7.022
313.15 K, x1 = 1 | 1018.05 | 6.745
318.15 K, x1 = 0.1001 | 1081.49 | 8.319
318.15 K, x1 = 0.1999 | 1069.89 | 8.436
318.15 K, x1 = 0.2997 | 1059.67 | 8.358
318.15 K, x1 = 0.4001 | 1050.7 | 8.059
318.15 K, x1 = 0.4998 | 1042.88 | 7.662
318.15 K, x1 = 0.6002 | 1035.9 | 7.175
318.15 K, x1 = 0.7 | 1029.55 | 6.646
318.15 K, x1 = 0.8 | 1023.79 | 6.177
318.15 K, x1 = 0.8994 | 1018.7 | 5.739
318.15 K, x1 = 1 | 1014.09 | 5.471
323.15 K, x1 = 0.1001 | 1077.77 | 7.031
323.15 K, x1 = 0.1999 | 1066.09 | 7.069
323.15 K, x1 = 0.2997 | 1055.81 | 6.976
323.15 K, x1 = 0.4001 | 1046.81 | 6.721
323.15 K, x1 = 0.4998 | 1038.98 | 6.378
323.15 K, x1 = 0.6002 | 1031.99 | 5.971
323.15 K, x1 = 0.7 | 1025.61 | 5.523
323.15 K, x1 = 0.8 | 1019.85 | 5.136
323.15 K, x1 = 0.8994 | 1014.75 | 4.788
323.15 K, x1 = 1 | 1010.12 | 4.532
333.15 K, x1 = 0.1001 | 1070.28 | 5.121
333.15 K, x1 = 0.1999 | 1058.44 | 5.137
333.15 K, x1 = 0.2997 | 1048.06 | 5.029
333.15 K, x1 = 0.4001 | 1038.98 | 4.824
333.15 K, x1 = 0.4998 | 1031.11 | 4.607
333.15 K, x1 = 0.6002 | 1024.09 | 4.298
333.15 K, x1 = 0.7 | 1017.71 | 3.988
333.15 K, x1 = 0.8 | 1011.92 | 3.711
333.15 K, x1 = 0.8994 | 1006.8 | 3.461
333.15 K, x1 = 1 | 1002.09 | 3.245
343.15 K, x1 = 0.1001 | 1060.64 | 3.886
343.15 K, x1 = 0.1999 | 1048.68 | 3.849
343.15 K, x1 = 0.2997 | 1038.24 | 3.752
343.15 K, x1 = 0.4001 | 1029.09 | 3.602
343.15 K, x1 = 0.4998 | 1021.2 | 3.424
343.15 K, x1 = 0.6002 | 1014.17 | 3.201
343.15 K, x1 = 0.7 | 1007.79 | 2.995
343.15 K, x1 = 0.8 | 1001.99 | 2.786
343.15 K, x1 = 0.8994 | 996.84 | 2.588
343.15 K, x1 = 1 | 992.07 | 2.431
353.15 K, x1 = 0.1001 | 1055.58 | 2.934
353.15 K, x1 = 0.1999 | 1043.36 | 2.99
353.15 K, x1 = 0.2997 | 1032.81 | 2.915
353.15 K, x1 = 0.4001 | 1023.59 | 2.776
353.15 K, x1 = 0.4998 | 1015.62 | 2.648
353.15 K, x1 = 0.6002 | 1008.55 | 2.488
353.15 K, x1 = 0.7 | 1002.15 | 2.326
353.15 K, x1 = 0.8 | 996.33 | 2.173
353.15 K, x1 = 0.8994 | 991.1 | 2.022
353.15 K, x1 = 1 | 986.24 | 1.891
